For 24 molecules, IC50 results are on record in patent publication US10508085B2, “Compounds and methods for IDO and TDO modulation, and indications therefor” (Plexxikon Inc., priority 2016, dated 2019).

Structures are written as SMILES.

Assay [1] addresses T1, Human Indoleamine 2,3-dioxygenase (IDO) (Homo sapiens, UniProt P14902).
T1 construct: His tag (N); made in house; host or cells: E. coli
Put plainly: Human IDO enzymatic assay (kynurenine level). In kind it is biochemical. The note with it: 6 nM IDO, 10 μM L-Trp; geometric mean; read-out: IDO1 GMean: IC50 (μM) (Biochemical Assay). The protocol: (§1) Human Indoleamine 2,3-dioxygenase (IDO) and Tryptophan 2,3-dioxygenase (TDO) enzymatic assay
(§2) Human IDO or TDO with N-terminal His tag is purified in E. coli. The IDO enzymatic assay is performed using 6 nM IDO and 10 μM L-Trp in the presence of 10 mM ascorbic acid, 5 μM methylene blue, 100 nM catalase and 0.01% Tween 20 in 50 mM sodium phosphate buffer (pH 6.5). 19 μL of above reaction mixture is added to wells of 384 well reaction plate containing […] of various concentrations of test compound or DMSO vehicle and incubated for 20 minutes at room temperature. The TDO enzymatic reaction assay is performed using 1 nM TDO and 350 μM L-Trp in the presence of 10 mM ascorbic acid, 0.4 μM methylene blue, 100 nM catalase and 0.01% Tween 20 in 50 mM sodium phosphate buffer (pH 6.5). 19 μL of above reaction mixture is added to wells of 384 well reaction plate containing 1 μL of various concentrations of test compound or DMSO vehicle and incubated for 70 minutes at room temperature. 16 wells containing all the components of reaction mixture and 5% DMSO serve as high control. 16 well containing all the components except enzyme of reaction mixture and 5% DMSO serves as low control. Both IDO and TDO enzymatic reactions are stopped by addition of […] of 30% TCA and incubated 30 minutes at 50° C. to hydrolyze N-formylkynurenine produced by IDO or TDO to kynurenine. Upon measuring the kynurenine level, the percentage inhibition is calculated at individual concentrations relative to high and low controls. The data is analyzed by using nonlinear regression to generate IC50 values.

In assay [2] the target is T2, Human Tryptophan 2,3-dioxygenase (TDO) (Homo sapiens, UniProt P48775).
T2 construct: His tag (N); made in house; host or cells: E. coli
Put plainly: Human TDO enzymatic assay (kynurenine level). Format: biochemical. The note with it: 1 nM TDO, 350 μM L-Trp; geometric mean; read-out: TDO GMean: IC50 (μM) (Biochemical Assay). The protocol:
as §1, §2

T1 sequence (P14902 whole entry): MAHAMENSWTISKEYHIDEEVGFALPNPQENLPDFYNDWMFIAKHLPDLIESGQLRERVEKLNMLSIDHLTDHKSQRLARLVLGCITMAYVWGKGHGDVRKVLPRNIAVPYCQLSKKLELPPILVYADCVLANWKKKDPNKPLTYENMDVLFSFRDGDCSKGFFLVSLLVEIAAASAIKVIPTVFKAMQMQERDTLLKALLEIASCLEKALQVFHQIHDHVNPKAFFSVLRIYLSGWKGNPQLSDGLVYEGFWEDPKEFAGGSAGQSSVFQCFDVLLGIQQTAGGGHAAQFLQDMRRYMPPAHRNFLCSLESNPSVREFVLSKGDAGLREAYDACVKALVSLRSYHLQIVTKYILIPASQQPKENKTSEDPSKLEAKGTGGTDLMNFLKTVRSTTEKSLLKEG
T2 sequence (P48775 whole entry): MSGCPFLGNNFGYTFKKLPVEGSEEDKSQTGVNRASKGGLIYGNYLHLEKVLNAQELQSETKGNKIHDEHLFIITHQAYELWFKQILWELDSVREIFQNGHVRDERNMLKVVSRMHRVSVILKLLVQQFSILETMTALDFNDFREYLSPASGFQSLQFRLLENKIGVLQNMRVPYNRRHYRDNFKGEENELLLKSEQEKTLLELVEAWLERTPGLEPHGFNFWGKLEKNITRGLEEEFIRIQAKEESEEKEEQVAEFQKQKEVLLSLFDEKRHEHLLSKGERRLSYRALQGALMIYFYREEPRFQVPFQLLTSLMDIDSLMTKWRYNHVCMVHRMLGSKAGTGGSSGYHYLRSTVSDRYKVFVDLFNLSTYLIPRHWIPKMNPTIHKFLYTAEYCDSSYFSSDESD

With `CC(C)(C1CCN(C(=O)NC2CCS(=O)(=O)CC2)CC1)[C@H](O)c1cc(Cl)cc2cn[nH]c12` [Compound P-0674, (S)-4-(1-(5-chloro-1H-indazol-7-yl)-1-hydroxy-2-methylpropan-2-yl)-N-(1,1-dioxidotetrahydro-2H-thiopyran-4-yl)piperidine-1-carboxamide], the IC50 in assay [1] and in assay [2] was 0.0001 to 10 µM each time.

Take `CC(C)(C1CCN(C(=O)NCc2ccc(F)cc2)CC1)[C@H](O)c1cc(Cl)cc2cn[nH]c12` [Compound P-0602, (S)-4-(1-(5-chloro-1H-indazol-7-yl)-1-hydroxy-2-methylpropan-2-yl)-N-(4-fluorobenzyl) piperidine-1-carboxamide]: the concentration for half-maximal inhibition (IC50) in assay [1] and in assay [2] was 0.0001 to 10 µM in each case.

Consider `C[C@H](O)CNC(=O)N1CCC(C(C)(C)[C@H](O)c2cc(Cl)cc3cn[nH]c23)CC1` [Compound P-0671, 4-((S)-1-(5-chloro-1H-indazol-7-yl)-1-hydroxy-2-methylpropan-2-yl)-N-((S)-2-hydroxypropyl) piperidine-1-carboxamide], for which the IC50 in assay [1] and in assay [2] was 0.0001 to 10 µM each time.

As to `CC(C)(O)CNC(=O)N1CCC(C(C)(C)[C@H](O)c2cc(Cl)cc3cn[nH]c23)CC1` [Compound P-0666, (S)-4-(1-(5-chloro-1H-indazol-7-yl)-1-hydroxy-2-methylpropan-2-yl)-N-(2-hydroxy-methylpropyl) piperidine-1-carboxamide], the IC50 in assay [1] and in assay [2] was 0.0001 to 10 µM each time.

As to `C[C@@H](CO)NC(=O)N1CCC(C(C)(C)[C@H](O)c2cc(Cl)cc3cn[nH]c23)CC1` [Compound P-0669, 4-((S)-1-(5-chloro-1H-indazol-7-yl)-1-hydroxy-2-methylpropan-2-yl)-N-((S)-1-hydroxypropan-2-yl)piperidine-1-carboxamide], the half-inhibitory concentration (IC50) in assay [1] and in assay [2] was 0.0001 to 10 µM throughout.

On to `OC(c1cccc(F)c1)c1cccc2cncn12` (stereo not drawn) [Compound P-0068, (3-fluorophenyl)(imidazo[1,5-a]pyridin-5-yl)methanol], for which the IC50 in assay [1] and in assay [2] was 0.0001 to 10 µM each time.

Take `O=C(NC1CCC1)N1CCC(C(F)(F)[C@H](O)c2c3c(cc4cn[nH]c24)CC3)CC1` [Compound P-0629, (R)-N-cyclobutyl-4-(2-(5,6-dihydro-1H-cyclobuta[f]indazol-7-yl)-1,1-difluoro-2-hydroxyethyl) piperidine-1-carboxamide]: the half-inhibitory concentration (IC50) in assay [1] and in assay [2] was 0.0001 to 10 µM each time.

For the molecule `CC(C)(C1CCN(C(=O)NC2CC(F)(F)C2)CC1)[C@H](O)c1cc(Cl)cc2cn[nH]c12` [Compound P-0592, (S)-4-(1-(5-chloro-1H-indazol-7-yl)-1-hydroxy-2-methylpropan-2-yl)-N-(3,3-difluorocyclobutyl) piperidine-1-carboxamide], the IC50 in assay [1] and in assay [2] was 0.0001 to 10 µM each time.

Take `OC(c1ccccc1C(F)(F)F)c1cccc2cncn12` (stereo not drawn) [Compound P-0067, imidazo[1,5-a]pyridin-5-yl(2-(trifluoromethyl)phenyl)methanol]: the IC50 in assay [1] lay within 100 to 200 µM; in assay [2], 0.0001 to 10 µM.

As to `N#CCC(=O)N1CCC(C(F)(F)[C@H](O)c2c3c(cc4cn[nH]c24)CC3)CC1` [Compound P-0613, (R)-3-(4-(2-(5,6-dihydro-1H-cyclobuta[f]indazol-7-yl)-1,1-difluoro-2-hydroxyethyl)piperidin-1-yl)-3-oxopropanenitrile], the IC50 in assay [1] and in assay [2] was 0.0001 to 10 µM each time.

Turning to `CC(C)(C1CCN(C(=O)N[C@H]2CCOC2)CC1)[C@H](O)c1cc(Cl)cc2cn[nH]c12` [Compound P-0589, 4-((S)-1-(5-chloro-1H-indazol-7-yl)-1-hydroxy-2-methylpropan-2-yl)-N-((S)-tetrahydrofuran-3-yl)piperidine-1-carboxamide], the concentration for half-maximal inhibition (IC50) in assay [1] and in assay [2] was 0.0001 to 10 µM throughout.

`O=C(c1ccc(C(F)(F)F)nc1)N1CCC(C(F)(F)[C@H](O)c2c3c(cc4cn[nH]c24)CC3)CC1` [Compound P-0620, (R)-(4-(2-(5,6-dihydro-1H-cyclobuta[f]indazol-7-yl)-1,1-difluoro-2-hydroxyethyl)piperidin-1-yl)(6-(trifluoromethyl)pyridin-3-yl)methanone]: the IC50 in assay [1] and in assay [2] was 0.0001 to 10 µM each time.

With `CC(C)(C1CCN(C(=O)NCCCC#N)CC1)[C@H](O)c1cc(Cl)cc2cn[nH]c12` [Compound P-0597, (S)-4-(1-(5-chloro-1H-indazol-7-yl)-1-hydroxy-2-methylpropan-2-yl)-N-(3-cyanopropyl) piperidine-1-carboxamide], the IC50 in assay [1] and in assay [2] was 0.0001 to 10 µM throughout.

Regarding `CC(C)(C1CCN(C(=O)Nc2ccccc2)CC1)C(O)c1cc(Cl)cc2[nH]ncc12` (stereo not drawn) [Compound P-0603, 4-(1-(6-chloro-1H-indazol-4-yl)-1-hydroxy-2-methylpropan-2-yl)-N-phenylpiperidine-1-carboxamide], the IC50 in assay [1] and in assay [2] was 0.0001 to 10 µM throughout.

Turning to `OC(c1cccc(N2CCOCC2)c1)c1cccc2cncn12` (stereo not drawn) [Compound P-0069, imidazo[1,5-a]pyridin-5-yl(3-morpholinophenyl)methanol], the IC50 in assay [1] and in assay [2] was 10 to 100 µM throughout.

In the case of `C[C@H](CO)NC(=O)N1CCC(C(C)(C)[C@H](O)c2cc(Cl)cc3cn[nH]c23)CC1` [Compound P-0668, 4-((S)-1-(5-chloro-1H-indazol-7-yl)-1-hydroxy-2-methylpropan-2-yl)-N-((R)-1-hydroxypropan-2-yl)piperidine-1-carboxamide], the IC50 in assay [1] and in assay [2] was 0.0001 to 10 µM in each case.

As for `CC1(C)C(C(=O)N2CCC(C(F)(F)[C@H](O)c3c4c(cc5cn[nH]c35)CC4)CC2)C1(C)C` [Compound P-0616, (R)-(4-(2-(5,6-dihydro-1H-cyclobuta[f]indazol-7-yl)-1,1-difluoro-2-hydroxyethyl)piperidin-1-yl)(2,2,3,3-tetramethylcyclopropyl) methanone], the IC50 in assay [1] is 0.0001 to 10 µM; in assay [2], 10 to 100 µM.

In the case of `CC(C)(C1CCN(C(=O)Nc2ccc(F)cc2)CC1)C(O)c1cc(Cl)cc2[nH]ncc12` (stereo not drawn) [Compound P-0660, 4-(1-(6-chloro-1H-indazol-4-yl)-1-hydroxy-2-methylpropan-2-yl)-N-(4-fluorophenyl) piperidine-1-carboxamide], the half-maximal inhibitory concentration (IC50) in assay [1] and in assay [2] was 0.0001 to 10 µM each time.

For `O=C(c1cccnc1)N1CCC(C(F)(F)[C@H](O)c2c3c(cc4cn[nH]c24)CC3)CC1` [Compound P-0619, (R)-(4-(2-(5,6-dihydro-1H-cyclobuta[f]indazol-7-yl)-1,1-difluoro-2-hydroxyethyl)piperidin-1-yl) (pyridin-3-yl)methanone], the concentration for half-maximal inhibition (IC50) in assay [1] and in assay [2] was 0.0001 to 10 µM in each case.

As for `CC(C)(C1CCN(C(=O)NCC2CCC2)CC1)[C@H](O)c1cc(Cl)cc2cn[nH]c12` [Compound P-0582, (S)-4-(1-(5-chloro-1H-indazol-7-yl)-1-hydroxy-2-methylpropan-2-yl)-N-(cyclobutylmethyl) piperidine-1-carboxamide], the IC50 in assay [1] and in assay [2] was 0.0001 to 10 µM in each case.

`O=C(CC1CCS(=O)(=O)CC1)N1CCC(C(F)(F)[C@H](O)c2c3c(cc4cn[nH]c24)CC3)CC1` [Compound P-0624, (R)-1-(4-(2-(5,6-dihydro-1H-cyclobuta[f]indazol-7-yl)-1,1-difluoro-2-hydroxyethyl)piperidin-1-yl)-2-(1,1-dioxidotetrahydro-2H-thiopyran-4-yl)ethan-1-one]: the IC50 in assay [1] and in assay [2] was 0.0001 to 10 µM each time.

Regarding `CC(C)(C)OC(=O)N1CCC(C(C)(C)C(O)c2cc(Cl)cc3[nH]ncc23)CC1` (stereo not drawn) [Compound P-0607, tert-butyl 4-(1-(6-chloro-1H-indazol-4-yl)-1-hydroxy-2-methylpropan-2-yl)piperidine-1-carboxylate], the concentration for half-maximal inhibition (IC50) in assay [1] and in assay [2] was 0.0001 to 10 µM throughout.

As to `O=C(Cc1ccc(Cl)c(F)c1)N1CCC(C(F)(F)[C@H](O)c2c3c(cc4cn[nH]c24)CC3)CC1` [Compound P-0626, (R)-2-(4-chloro-3-fluorophenyl)-1-(4-(2-(5,6-dihydro-1H-cyclobuta[f]indazol-7-yl)-1,1-difluoro-2-hydroxyethyl)piperidin-1-yl) ethan-1-one], the IC50 in assay [1] and in assay [2] was 0.0001 to 10 µM each time.

With `CC(C)(C1CCN(C(=O)CN2CCOCC2)CC1)C(O)c1cc(Cl)cc2[nH]ncc12` (stereo not drawn) [Compound P-0609, 1-(4-(1-(6-chloro-1H-indazol-4-yl)-1-hydroxy-2-methylpropan-2-yl)piperidin-1-yl)-2-morpholinoethan-1-one], the half-maximal inhibitory concentration (IC50) in assay [1] and in assay [2] was 0.0001 to 10 µM in each case.

The IC50 is the point on the concentration scale where inhibition reaches its midpoint.
